Results reported in US20040072738A1, “Analogues of thiocoraline and be-22179” (priority 2000, published 2004).
Values after ≈ are worked out from the molar mass of the structure shown. Bridge positions count the residues as written; N and C are the ends. Square brackets hold non-standard residues; d marks the D form. Peptide text beside a SMILES is read from it. I, II: the chains in the order shown. * marks the point of attachment. Quinaldoyl(3-OH) = O=C(c1nc2ccccc2cc1O)*; NMeC = CN[C@@H](CS)C(=O)O

Key:
[1] = tested on: duplex deoxyoligonucleotides, 5′-GCXXGC-3′ where XX=TA, AT, GC, CG; test: fluorescence quenching titration with duplex deoxyoligonucleotides; details: high-affinity binding, listed as 1
Description: Consequently, the binding of 1 was examined with a set of four duplex deoxyoligonucleotides, 5′-GCXXGC-3′ where XX=TA, AT, GC, CG, incorporating the high affinity intercalation sites of the related bisintercalatiors echinomycin (5′-PuCGPy) (Corbaz, R., et al., Helv. Chim. Acta 1957, 40, 199; Keller-Schierlein, W., et al., Helv. Chim. Acta 1957, 40, 205; Keller-Schierlein, W., et al., Helv. Chim. Acta 1959, 42, 305; Martin, D. G., et al., J. Antibiot. 1975, 28, 332; Dell, A., et al., J. Am. Chem. Soc. 1975, 97, 2497), sandramycin (5′-CATG) (Boger, D. L., et al., Bioorg. Med. Chem. 1999, 7, 315; Boger, D. L., et al., Bioorg. Med. Chem. 1998, 6, 85), and the luzopeptins (5′-CATG) (Isolation: Konishi, M., et al., J. Antibiot. 1981, 34, 148; Structure and stereochemistry: Arnold, E., et al., J. Am. Chem. Soc. 1981, 103, 1243. Total synthesis (luzopeptins A-C): Boger, D. L., et al., J. Am. Chem. Soc. 1999, 121, 1098; Boger, D. L., et al., J. Am. Chem. Soc. […] The excitation and emission spectra for thiocoraline and BE-22179 were recorded in aqueous buffer (Tris-HCl, pH 7.4, 75 mM NaCl). To minimize fluorescence decrease due to dissolution or photobleaching, the solutions were stirred in 4-mL cuvettes in the dark with the minimum exposure to the excitation beam necessary to obtain a reading. […]

[2] = solubility in aqueous buffer; format: physicochemical; details: aqueous Tris-HCl buffer; Tris-HCl pH 7.4, 75 mM NaCl; read-out: agent concentrations where the compounds are soluble
[3] = target: T1, DNA polymerase α (Homo sapiens, UniProt P09884); details: at concentrations that inhibit cell cycle progression and clonogenicity; cited from earlier work
T1 sequence (P09884 1-1462): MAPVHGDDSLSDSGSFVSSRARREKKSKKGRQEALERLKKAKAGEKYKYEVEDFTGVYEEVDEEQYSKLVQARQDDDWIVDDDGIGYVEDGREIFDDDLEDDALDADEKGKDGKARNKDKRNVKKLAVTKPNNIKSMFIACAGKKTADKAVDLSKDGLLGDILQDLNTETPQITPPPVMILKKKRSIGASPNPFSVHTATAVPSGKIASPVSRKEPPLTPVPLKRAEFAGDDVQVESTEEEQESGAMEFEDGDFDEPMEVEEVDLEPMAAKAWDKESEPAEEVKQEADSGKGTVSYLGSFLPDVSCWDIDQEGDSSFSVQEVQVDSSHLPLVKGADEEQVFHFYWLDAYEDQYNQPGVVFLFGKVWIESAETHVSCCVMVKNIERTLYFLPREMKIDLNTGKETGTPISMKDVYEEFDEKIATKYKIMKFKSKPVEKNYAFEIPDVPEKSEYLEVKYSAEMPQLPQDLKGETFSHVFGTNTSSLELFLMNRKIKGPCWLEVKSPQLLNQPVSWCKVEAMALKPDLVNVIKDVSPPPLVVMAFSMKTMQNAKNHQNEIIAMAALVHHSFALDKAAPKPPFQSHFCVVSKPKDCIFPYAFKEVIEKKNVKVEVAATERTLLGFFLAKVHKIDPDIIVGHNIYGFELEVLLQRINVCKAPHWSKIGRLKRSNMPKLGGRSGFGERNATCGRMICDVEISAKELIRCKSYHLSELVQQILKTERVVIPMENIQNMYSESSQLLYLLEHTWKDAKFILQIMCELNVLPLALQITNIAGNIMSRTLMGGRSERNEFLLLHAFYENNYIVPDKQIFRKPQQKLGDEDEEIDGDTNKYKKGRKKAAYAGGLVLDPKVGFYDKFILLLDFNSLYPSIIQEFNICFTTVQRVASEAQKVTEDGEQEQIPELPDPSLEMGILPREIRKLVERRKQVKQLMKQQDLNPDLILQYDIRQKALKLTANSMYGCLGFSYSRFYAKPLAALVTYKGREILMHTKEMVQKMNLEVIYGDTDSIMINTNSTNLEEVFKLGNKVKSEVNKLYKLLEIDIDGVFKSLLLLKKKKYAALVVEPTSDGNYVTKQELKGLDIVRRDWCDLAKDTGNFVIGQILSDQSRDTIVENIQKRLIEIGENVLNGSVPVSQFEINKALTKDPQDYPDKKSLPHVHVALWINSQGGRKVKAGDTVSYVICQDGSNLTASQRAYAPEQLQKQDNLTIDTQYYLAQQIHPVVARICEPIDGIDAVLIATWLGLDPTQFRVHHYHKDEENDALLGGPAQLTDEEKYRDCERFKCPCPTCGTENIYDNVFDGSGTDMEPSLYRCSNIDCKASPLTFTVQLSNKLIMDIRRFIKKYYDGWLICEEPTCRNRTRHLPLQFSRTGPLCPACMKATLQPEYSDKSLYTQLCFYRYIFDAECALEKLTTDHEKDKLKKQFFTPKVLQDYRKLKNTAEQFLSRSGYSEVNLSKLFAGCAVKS

[4] = target: HIV-1 reverse transcriptase (Human immunodeficiency virus type 1 group M subtype B, UniProt P03366); test: inhibition of HIV-1 reverse transcriptase; format: biochemical

With CSC[C@H]1C(=O)SC[C@@H](NC(=O)c2nc3ccccc3cc2O)C(=O)NCC(=O)N(C)[C@H]2CSSC[C@@H](C(=O)N1C)N(C)C(=O)CNC(=O)[C@H](NC(=O)c1nc3ccccc3cc1O)CSC(=O)[C@H](CSC)N(C)C2=O [Thiocoraline] (I: {Quinaldoyl(3-OH)}-[dC]G[NMeC][NMeC](Me) / II: {Quinaldoyl(3-OH)}-[dC]G[NMeC][NMeC](Me); thioester I:1-II:C, I:C-II:1; disulfide I:3-II:3) as the molecule, how does the “binding constants for the four deoxyoligonucleotides” value [1] read?
Its value is 3-7×10^6 M^−1.

And the solubility [2]?
Its solubility is 1 to 10 µM (≈ 1.16 to 11.6 µg/mL).

And the “inhibition of DNA polymerase α” value [3]?
Its value is “does inhibit”.

And the “inhibition of HIV-1 reverse transcriptase (in words)” value [4]?
Its value is “weak inhibitor”.
